Experimental data from US20120226031A1, “PALMARUMYCIN BASED INHIBITORS OF THIOREDOXIN AND METHODS OF USING SAME” (ARIZONA BOARD OF REGENTS, ACTING ON BEHALF OF THE …, priority 2005, published 2012).
Where two headings read alike, the source gives them in different places.

What was measured:
[1] = system: A-673 human rhabdomyosarcoma xenografts; experiment: Antitumor activity, A-673 rhabdomyosarcoma xenograft; assay type: in vivo, mouse; design: dose or concentration left out as unconfirmed; conditions: ip
Description: FIG. 4. Antitumor activity of PX-916. A. Female beige nude mice were inoculated subcutaneously (s.c.) with 10^7 A-673 rhabdomyosarcoma cells. […] B. Female scid mice were inoculated s.c. with 10^7 SHP-77 human small cell lung cancer cells. When tumors were 130 mm^3 on day 17 (arrow) dosing was begun with (∘) vehicle alone; (▪) PX-916 10 mg/kg i.v. daily for 8 doses; (▴) PX-916 25 mg/kg i.v. daily for 5 doses. C. Female scid mice implanted 1 day previously with a 17-β-estradiol 60 day slow release pellet were inoculated s.c. with 10^7 MCF-7 human breast cancer cells. When tumors were 180 mm^3 on day 8 (arrow) dosing was begun with (∘) vehicle alone; (⋄) PX-916 27.5 mg/kg i.v. daily for 5 doses. In both A and B values are the mean of 8 mice per group and bars are SE.
(§1) A single intravenous (i.v.) dose of PX-916 of 25 mg/kg inhibited MCF-7 human tumor xenograft TR up to about 60% at 24 hr and the inhibition was maintained for at least 48 hr (FIG. 3C). […] In this study 3 of eight nice had no histologically detectable tumor when the study was terminated on day 42.

[2] = Stability in fresh mouse plasma at room temperature; assay type: in vitro ADME
Description: Two metabolite peaks could be seen at 5 minutes, but were undetectable by 30 minutes.

[3] = pH dependent stability in water / 0.1M sodium phosphate buffer; assay type: physicochemical
Description: (§2) PX-916 was stable as a stock solution in ethanol at room temperature with a half life of >5 days. […] Therefore, for in vitro studies PX-916 was used as a stock solution in ethanol, and for in vivo studies made fresh in pH 4.0 buffer vehicle.
Further palmarumycin analogs were synthesized and tested. The following analogs were synthesized: eee269-II, eee86-III, eee263-II and eee273-II. The stability of the analogs was measured in various solutions.

[4] = Stability in ethanol at room temperature; assay type: physicochemical
Excerpt: as §2

[5] = target: T1, human cytochrome P-450 reductase (versus human thioredoxin reductase, TR) (Homo sapiens, UniProt P16435); experiment: Inhibition of human cytochrome P-450 reductase (selectivity); assay type: biochemical; conditions: human
T1 sequence (P16435 1-677): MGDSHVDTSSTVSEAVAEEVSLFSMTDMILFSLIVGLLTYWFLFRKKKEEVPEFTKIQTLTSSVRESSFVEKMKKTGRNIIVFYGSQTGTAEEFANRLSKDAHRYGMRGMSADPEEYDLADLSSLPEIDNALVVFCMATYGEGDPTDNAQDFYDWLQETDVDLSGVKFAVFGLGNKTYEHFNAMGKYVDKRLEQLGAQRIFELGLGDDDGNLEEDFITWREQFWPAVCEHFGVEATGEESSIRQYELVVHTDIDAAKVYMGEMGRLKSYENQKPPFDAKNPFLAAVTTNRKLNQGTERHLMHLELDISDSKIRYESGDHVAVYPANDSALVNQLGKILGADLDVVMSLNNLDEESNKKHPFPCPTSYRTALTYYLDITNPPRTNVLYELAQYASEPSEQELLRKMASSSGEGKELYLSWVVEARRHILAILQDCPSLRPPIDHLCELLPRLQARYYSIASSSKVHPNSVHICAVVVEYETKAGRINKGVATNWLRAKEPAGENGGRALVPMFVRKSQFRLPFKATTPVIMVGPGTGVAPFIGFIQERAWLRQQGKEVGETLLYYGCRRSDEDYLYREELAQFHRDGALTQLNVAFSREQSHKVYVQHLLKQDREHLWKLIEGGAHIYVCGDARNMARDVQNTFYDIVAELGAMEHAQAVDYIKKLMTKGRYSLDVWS
Description: (§3) Based upon the observation that PX-916 was rapidly converted to PX-960 in aqueous solution, the ability of PX-960 to inhibit purified human TR was measured and found to be similar to that of PX-916 (Table 2). PX-916 was a selective inhibitor of human TR compared to two other NADPH dependent reductases with a selectivity of at least 200 for human glutathione reductase and human cytochrome P-450 reductase (Table 3).

[6] = target: T2, human cytochrome P-450 reductase (Homo sapiens, UniProt P16435); experiment: as above; assay type: biochemical
T2 sequence (P16435 1-677): T1 sequence (P16435 1-677)
Description: as §3

[7] = system: MCF-7 human breast cancer xenografts; experiment: Antitumor activity, MCF-7 breast cancer xenograft; assay type: in vivo, mouse
Description: FIG. 4. Antitumor activity of PX-916. A. Female beige nude mice were inoculated subcutaneously (s.c.) with 10^7 A-673 rhabdomyosarcoma cells. When tumors were 100 mm^3 on day 8 (arrow) dosing was begun with (∘) vehicle alone; (▴) PX-916 10 mg/kg intraperitoneally (i.p.) daily for 4 doses. B. Female scid mice were inoculated s.c. with 10^7 SHP-77 human small cell lung cancer cells. When tumors were 130 mm^3 on day 17 (arrow) dosing was begun with (∘) vehicle alone; (▪) PX-916 10 mg/kg i.v. daily for 8 doses; (▴) PX-916 25 mg/kg i.v. daily for 5 doses. C. Female scid mice implanted 1 day previously with a 17-β-estradiol 60 day slow release pellet were inoculated s.c. with 10^7 MCF-7 human breast cancer cells. […] In both A and B values are the mean of 8 mice per group and bars are SE.
as §1

[8] = 27.5 mg/kg i.v. every other day for 5 doses

With NCC(=O)Oc1ccc2c3c(cccc13)OC1(C=CC(=O)c3c(O)cccc31)O2 (stereo not shown) [PX-916, O-glycyl naphthoquinone spiroketal] the tumor growth inhibition [1] was 97%, the tumor growth rate ([1]; 5 days after dosing) was 5±3 mm^3/d and the half-life [2] was < 2 min. The half-life ([3]; 0.1M sodium phosphate buffer, pH 4.0, read-out: half life (converted)) was 37 h, the half-life ([3]; 0.1M sodium phosphate buffer, pH 7.0, read-out: half life (converted)) was 1 h and the half-life ([3]; 0.1M sodium phosphate buffer, pH 10.0, read-out: half life (converted)) was < 1 h. The “half life of conversion to PX-960” value ([3]; physiological pH) was 1 h, the half-life ([3]; water, pH 4, room temperature, pH4, read-out: t1/2 in water (converted)) was 37 h and the half-life ([3]; water, pH 7 and above, read-out: t1/2 in water (converted)) was < 1 h. The “half life of stock solution in ethanol” value ([4]; b145) was > 120 h, the half-life ([4]; ethanol, b120, read-out: half-life for conversion to PX-960 in ethanol) was > 120 h and the selectivity ratio ([5]; Table 3, read-out: Selectivity for TR vs cytochrome P-450 reductase) was 104. The selectivity ratio ([5]; read-out: selectivity for human TR vs human cytochrome P-450 reductase) was ≥ 200, the “concentration increase needed to inhibit cytochrome P-450 reductase” value [6] was “greater than 100 fold” and the IC50 ([6]; Table 3, read-out: Inhibition IC50, cytochrome P-450 reductase (recombinant)) was 29.2 µM. For the same compound, the tumor growth inhibition ([7]; 27.5 mg/kg i.v. daily for 5 doses) was 52%, the tumor growth rate ([7]; 27.5 mg/kg i.v. daily for 5 doses, 5 days after end of dosing) was 22±4 mm^3/day and the tumor growth inhibition [7, 8] was 52%. The tumor growth rate [7, 8] was 22±8 mm^3/day, the tumor growth inhibition ([7]; 27.5 mg/kg orally for 5 doses) was 62% and the tumor growth rate ([7]; 27.5 mg/kg orally for 5 doses) was 18.5±8 mm^3/day. The “antitumor activity following oral administration” value ([7]; oral, at doses that gave i.v. antitumor activity) was “Significant antitumor activity was not seen”.
